Test systems include OVCAR-3 ovarian; NCI/ADR-RES ovarian; MDA-MB-231 breast; HCT-116 colon; HS 578T breast; UACC-62 melanoma; M14 melanoma; SF-539 CNS; PC-3 prostate; UACC-257 melanoma; MDA-N; 786-0 renal; SNB-75 CNS; SN12C renal; HOP-92 NSCLC; HCC-2998 colon.
Holding throughout (assay): DTP human tumour cell line panel, 48 h

“And” between values parts separate entries of the source, which are not always exact repeats. Equal entries are not always repeated.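 Growth conditions: 96-well plates. Treatment: test compound, 48 hours, 5 concentrations. Analysis: linear interpolation between bracketing concentrations; unreached endpoints set to highest concentration. At the GI50, growth is halved. TGI denotes the concentration required for complete inhibition of growth.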

Broadly, the TGI is the concentration at which net growth stops. High values mean lower sensitivity of the cells, low ones greater sensitivity of the cells. Consider `CN(Nc1cc(=O)[nH]c(=O)[nH]1)c1ccccc1`, for which the TGI with OVCAR-3 ovarian, in the test with NCI/ADR-RES ovarian, in the test on MDA-MB-231 breast, in the test on HCT-116 colon, in the test on HS 578T breast and in the test with UACC-62 melanoma was more than 100 µM throughout. The TGI in the test on M14 melanoma, in the test on SF-539 CNS, in the test with PC-3 prostate, in the test with UACC-257 melanoma, with MDA-N and in the test on 786-0 renal was more than 100 µM throughout. Further, the TGI with SNB-75 CNS, in the test with SN12C renal, in the test on HOP-92 NSCLC and in the test on HCC-2998 colon was more than 100 µM each time.

Regarding `COc1ccc2c(c1)CN1C(=N2)CSC1c1cc([N+](=O)[O-])ccc1Cl` (stereo not drawn), the TGI is more than 100 µM in the test on NCI/ADR-RES ovarian; more than 100 µM in the test on MDA-MB-231 breast; more than 100 µM with HCT-116 colon; more than 100 µM in the test on HS 578T breast; 57.5 µM with UACC-62 melanoma; more than 100 µM with M14 melanoma. Besides, the TGI in the test with SF-539 CNS was 98.2 µM; in the test on PC-3 prostate, more than 100 µM; in the test with UACC-257 melanoma, more than 100 µM; with MDA-N it was more than 100 µM; with 786-0 renal it was more than 100 µM; in the test with SNB-75 CNS, more than 100 µM. Besides, the TGI with SN12C renal was more than 100 µM; in the test on HOP-92 NSCLC, more than 100 µM; with HCC-2998 colon, 58.7 µM.

As to `CC1=CC(C2/C(=N/O)C=C(C)CC2(C)C)C(O)C(C)(C)C1` (stereo not drawn), the TGI with OVCAR-3 ovarian is 23.3 µM; with NCI/ADR-RES ovarian it was 33.5 µM; in the test with MDA-MB-231 breast, 31.6 µM; in the test on HCT-116 colon, 29.3 µM; in the test with HS 578T breast it was more than 100 µM; in the test on UACC-62 melanoma, 29.4 µM. Besides, the TGI was 28.9 µM in the test on M14 melanoma; 41.7 µM in the test with SF-539 CNS; 29.8 µM in the test with PC-3 prostate; 30.1 µM with UACC-257 melanoma; 31.9 µM with MDA-N; 31.8 µM in the test on 786-0 renal. Also, the TGI in the test on SNB-75 CNS is 29.2 µM; with SN12C renal it was 33.3 µM; in the test on HOP-92 NSCLC, 27.5 µM; in the test on HCC-2998 colon it was 30 µM.

Broadly, the GI50 is the concentration that inhibits growth by half. On to `NC(CCC(=O)NC(CSC(=O)N(O)c1ccc(Br)cc1)C(=O)NCC(=O)O)C(=O)O` (stereo not drawn), for which the TGI in the test on OVCAR-3 ovarian is more than 100 µM; in the test with NCI/ADR-RES ovarian, more than 50 µM; in the test on MDA-MB-231 breast it was more than 50 µM; in the test with HCT-116 colon, more than 100 µM; in the test on HS 578T breast it was more than 50 µM; in the test on UACC-62 melanoma it was more than 100 µM. Besides, the TGI is more than 100 µM in the test with M14 melanoma; more than 100 µM with SF-539 CNS; more than 50 µM in the test with PC-3 prostate; more than 100 µM in the test on UACC-257 melanoma; more than 50 µM in the test with MDA-N; more than 100 µM in the test with 786-0 renal. Moreover, the TGI in the test on SNB-75 CNS, in the test with SN12C renal, in the test with HOP-92 NSCLC and with HCC-2998 colon was more than 100 µM in each case. Further, in the test with SNB-75 CNS, the GI50 is 62.3 µM and 7.52 µM.

For `COC(=O)C1=C(C)NC(C)=C(C(=O)OC)C1c1ccc(/[N+]([O-])=C/c2ccccc2)cc1`, the total growth inhibition concentration (TGI) in the test on OVCAR-3 ovarian was 34.4 µM; in the test with NCI/ADR-RES ovarian, more than 100 µM; with MDA-MB-231 breast it was more than 100 µM; with HCT-116 colon, 30 µM; in the test with HS 578T breast, more than 100 µM; in the test on UACC-62 melanoma, more than 100 µM. Also, the TGI with M14 melanoma was 35.7 µM; with SF-539 CNS, more than 100 µM; with PC-3 prostate it was more than 100 µM; in the test with UACC-257 melanoma, more than 100 µM; with MDA-N it was more than 100 µM; in the test with 786-0 renal, 33.3 µM. Also, the TGI in the test with SNB-75 CNS is more than 100 µM; in the test with SN12C renal, more than 100 µM; with HOP-92 NSCLC, 35.3 µM; with HCC-2998 colon it was more than 100 µM.

As for `CSC1=C(SC)SC(=C2SC3=C(SC(=C4SCCS4)S3)S2)S1`, the TGI with OVCAR-3 ovarian, in the test with NCI/ADR-RES ovarian, in the test on MDA-MB-231 breast, in the test on HCT-116 colon, in the test on HS 578T breast and with UACC-62 melanoma was more than 100 µM each time. Moreover, the TGI with M14 melanoma, in the test on SF-539 CNS, with PC-3 prostate, with UACC-257 melanoma, with MDA-N and with 786-0 renal was more than 100 µM throughout. Also, the TGI in the test on SNB-75 CNS, in the test on SN12C renal, in the test on HOP-92 NSCLC and in the test on HCC-2998 colon was more than 100 µM each time.

On to `Cc1ccc(S(=O)(=O)C2=Cc3ccc(C(F)(F)F)cc3C2(O)c2cccc(C(F)(F)F)c2)cc1` (stereo not drawn), for which the TGI with OVCAR-3 ovarian is 3.01 µM; with NCI/ADR-RES ovarian, 8.51 µM; in the test with MDA-MB-231 breast, 5.06 µM; in the test on HCT-116 colon, 3.03 µM; in the test with HS 578T breast, more than 27.2 µM; in the test with UACC-62 melanoma, 5.71 µM. The TGI is 4.83 µM with M14 melanoma; 3.84 µM in the test on SF-539 CNS; 8.03 µM in the test with PC-3 prostate; 3.93 µM in the test with UACC-257 melanoma; 5.88 µM with MDA-N; 3.96 µM with 786-0 renal. Besides, the total growth inhibition concentration (TGI) in the test with SNB-75 CNS came to 13.9 µM; in the test with SN12C renal, 4.47 µM; in the test with HOP-92 NSCLC, 4.17 µM; in the test with HCC-2998 colon, 4.63 µM.

Turning to `C=CCNC1=C2C[C@@H](C)C[C@@H](OC)[C@@H](OC(=O)CCCN)[C@H](C)/C=C(\C)[C@@H](OC(N)=O)[C@H](OC)/C=C\C=C(/C)C(=O)NC(=CC1=O)C2=O`, the TGI was 32.8 µM with OVCAR-3 ovarian; more than 100 µM in the test on NCI/ADR-RES ovarian; 33.5 µM in the test with MDA-MB-231 breast; 52.9 µM in the test on HCT-116 colon; 49.5 µM in the test with HS 578T breast; 31.8 µM in the test on UACC-62 melanoma. Moreover, the TGI with M14 melanoma is 28.7 µM; in the test on SF-539 CNS it was 29.9 µM; in the test on PC-3 prostate, 29.1 µM; in the test on UACC-257 melanoma, 31.9 µM; in the test on MDA-N it was 28.4 µM; with 786-0 renal it was 42.2 µM. Moreover, the TGI came out at 22.2 µM in the test on SNB-75 CNS, 44.2 µM with SN12C renal, 29.3 µM in the test on HOP-92 NSCLC and 32.9 µM in the test with HCC-2998 colon.

These data come from PubChem BioAssay (NCI).
